In patent US7637980B2, “Method of increasing photosynthesis in plants comprising an exposure thereof to lipochitooligosaccharides and compositions therefor” (McGill University, priority 1999, dated 2009):

Columns and labels:
Format in all cases: in vivo
soybean (cv Bayfield) [1] = assay: Photosynthesis of soybean after LCO foliar spray, greenhouse
Method: (§1) Soybean (cv Bayfield) seeds were surface sterilized with 2% sodium hypochlorite for 3-4 minutes, washed with several changes of sterile distilled water and germinated in plastic trays containing sterile vermiculite. Seedlings at the two-leaf stage, about seven days of planting, were transplanted into 15 cm plastic pots containing promix (Premier Brands Inc., New Rochelle, N.Y., USA). Pots were placed in a greenhouse maintained at 25±2° C. with a day/night cycle of 16/8 h. Plants were watered as required.
(§2) Concentrations of LCO (10^−6 M-10^−12 M) were made with distilled water containing 0.02% Tween 20. A control treatment, containing 0.02% Tween 20, but no LCO was also applied. Since the rates of growth and development differed among the plant species used in the experiments, spray treatment was conducted at different times after planting In general, the spray was applied when the plants were big enough to allow easy measurements of leaf photosynthetic rates. The following are the ages of the plants when the sprays were conducted: soybean 21 days after planting (DAP), corn 25 DAP, rice 45 DAP, melon (35 DAP) and canola 30 DAP. The plants were sprayed with LCO solutions until dripping. The sprays were applied with an atomizer (Nalgene, USA). Each plant required 2-3 mL of spray solution. Each treatment was replicated at least five times and organized on the green house bench in a randomized complete block design. Each experiment (with each crop species) was repeated at least twice.
(§3) Photosynthesis was recorded every 24 h using a Li-Cor 6400 portable photosynthesis system (Li-Cor Inc., Lincoln, Neb., USA) for 6 days. In the case of soybean the photosynthesis in the second nodal leaf from the top was recorded while in the other species used in the photosynthetic rate was measured for the top-most fully expanded leaf. Soybean plants were harvested after seven days of LCO treatment and dried at 80° C. for 48 h. Data were analyzed with the Statistical Analysis System (SAS Inc., N.C., USA). Percent increase in photosynthesis over the control was calculated.

soybean (cv Bayfield) [2] = assay: Leaf area and shoot dry weight of soybean after LCO spray, greenhouse; settings: seven days after treatment
Method: as §1, §2, §3

[3] = system: corn (Zea mays cv Pioneer 3921); assay: Photosynthesis of corn after LCO spray, greenhouse
Method: (§4) Seeds of rice (Oryza sativa cv Cypress), canola (Brassica napus cv Springfield), corn (Zea mays cv Pioneer 3921) and melon (Cucumis melo cv Nova) were surface sterilized with 2% sodium hypochlorite for 3-4 min, washed with several changes of sterile distilled water and planted in plastic pots (15 cm dia) containing promix (Premier Brands Inc., New Rochelle, N.Y., USA).
as §2, §3

[4] = system: rice (Oryza sativa cv Cypress); assay: Photosynthesis of rice after LCO spray, greenhouse
Method: as §4, §2, §3

[5] = system: canola (Brassica napus cv Springfield); assay: Photosynthesis of canola after LCO spray, greenhouse
Method: as §4, §2, §3

Nod Bj V (C18:1, MeFeu) showed a photosynthesis (soybean (cv Bayfield) [1]; 10^−6 M, day 1 after treatment) of 14.9 μmol m^−2 sec^−1, a photosynthesis (soybean (cv Bayfield) [1]; 10^−6 M, day 2 after treatment) of 12.1 μmol m^−2 sec^−1 and a photosynthesis (soybean (cv Bayfield) [1]; 10^−6 M, day 4 after treatment) of 16.2 μmol m^−2 sec^−1. For the same substance, the photosynthesis (soybean (cv Bayfield) [1]; 10^−6 M, day 5 after treatment) was 16.7 μmol m^−2 sec^−1, the photosynthesis (soybean (cv Bayfield) [1]; 10^−6 M, day 6 after treatment) was 13.1 μmol m^−2 sec^−1 and the photosynthesis (soybean (cv Bayfield) [1]; 10^−7 M, day 1 after treatment) was 12.1 μmol m^−2 sec^−1. The photosynthesis (soybean (cv Bayfield) [1]; 10^−7 M, day 2 after treatment) was 9.1 μmol m^−2 sec^−1, the photosynthesis (soybean (cv Bayfield) [1]; 10^−7 M, day 4 after treatment) was 12.9 μmol m^−2 sec^−1 and the photosynthesis (soybean (cv Bayfield) [1]; 10^−7 M, day 5 after treatment) was 14.1 μmol m^−2 sec^−1. The photosynthesis (soybean (cv Bayfield) [1]; 10^−7 M, day 6 after treatment) was 11.1 μmol m^−2 sec^−1, the photosynthesis (soybean (cv Bayfield) [1]; 10^−8 M, day 1 after treatment) was 13.8 μmol m^−2 sec^−1 and the photosynthesis (soybean (cv Bayfield) [1]; 10^−8 M, day 2 after treatment) was 8.1 μmol m^−2 sec^−1. It also gave a photosynthesis (soybean (cv Bayfield) [1]; 10^−8 M, day 4 after treatment) of 12.3 μmol m^−2 sec^−1, a photosynthesis (soybean (cv Bayfield) [1]; 10^−8 M, day 5 after treatment) of 16.4 μmol m^−2 sec^−1 and a photosynthesis (soybean (cv Bayfield) [1]; 10^−8 M, day 6 after treatment) of 10.3 μmol m^−2 sec^−1. It also gave a photosynthesis (soybean (cv Bayfield) [1]; 10^−9 M, day 1 after treatment) of 15.8 μmol m^−2 sec^−1, a photosynthesis (soybean (cv Bayfield) [1]; 10^−9 M, day 2 after treatment) of 8.4 μmol m^−2 sec^−1 and a photosynthesis (soybean (cv Bayfield) [1]; 10^−9 M, day 4 after treatment) of 15.7 μmol m^−2 sec^−1. The photosynthesis (soybean (cv Bayfield) [1]; 10^−9 M, day 5 after treatment) was 17.5 μmol m^−2 sec^−1, the photosynthesis (soybean (cv Bayfield) [1]; 10^−9 M, day 6 after treatment) was 11.2 μmol m^−2 sec^−1 and the photosynthesis (soybean (cv Bayfield) [1]; 10^−10 M, day 1 after treatment) was 13.6 μmol m^−2 sec^−1. It also gave a photosynthesis (soybean (cv Bayfield) [1]; 10^−10 M, day 2 after treatment) of 8.7 μmol m^−2 sec^−1, a photosynthesis (soybean (cv Bayfield) [1]; 10^−10 M, day 4 after treatment) of 14.6 μmol m^−2 sec^−1 and a photosynthesis (soybean (cv Bayfield) [1]; 10^−10 M, day 5 after treatment) of 16.9 μmol m^−2 sec^−1. The photosynthesis (soybean (cv Bayfield) [1]; 10^−10 M, day 6 after treatment) was 11.2 μmol m^−2 sec^−1, the photosynthesis (soybean (cv Bayfield) [1]; 10^−11 M, day 1 after treatment) was 14.0 μmol m^−2 sec^−1 and the photosynthesis (soybean (cv Bayfield) [1]; 10^−11 M, day 2 after treatment) was 8.7 μmol m^−2 sec^−1. The photosynthesis (soybean (cv Bayfield) [1]; 10^−11 M, day 4 after treatment) was 17.4 μmol m^−2 sec^−1, the photosynthesis (soybean (cv Bayfield) [1]; 10^−11 M, day 5 after treatment) was 17.9 μmol m^−2 sec^−1 and the photosynthesis (soybean (cv Bayfield) [1]; 10^−11 M, day 6 after treatment) was 12.5 μmol m^−2 sec^−1. For the same substance, the photosynthesis (soybean (cv Bayfield) [1]; 10^−12 M, day 1 after treatment) was 15.0 μmol m^−2 sec^−1, the photosynthesis (soybean (cv Bayfield) [1]; 10^−12 M, day 2 after treatment) was 10.3 μmol m^−2 sec^−1 and the photosynthesis (soybean (cv Bayfield) [1]; 10^−12 M, day 4 after treatment) was 16.9 μmol m^−2 sec^−1. The photosynthesis (soybean (cv Bayfield) [1]; 10^−12 M, day 5 after treatment) was 17.0 μmol m^−2 sec^−1, the photosynthesis (soybean (cv Bayfield) [1]; 10^−12 M, day 6 after treatment) was 12.0 μmol m^−2 sec^−1 and the “increase in photosynthetic rate” value (soybean (cv Bayfield) [1]; LCO spray, greenhouse, on an average) was 50%. For the same substance, the Leaf area (soybean (cv Bayfield) [2]; 10^−6 M) was 223.6 cm^2, the Shoot dry weight (soybean (cv Bayfield) [2]; 10^−6 M) was 1065.8 mg and the Leaf area (soybean (cv Bayfield) [2]; 10^−7 M) was 193.6 cm^2. For the same substance, the Shoot dry weight (soybean (cv Bayfield) [2]; 10^−7 M) was 1135.2 mg, the Leaf area (soybean (cv Bayfield) [2]; 10^−8 M) was 217.6 cm^2 and the Shoot dry weight (soybean (cv Bayfield) [2]; 10^−8 M) was 1095.7 mg. For the same substance, the Leaf area (soybean (cv Bayfield) [2]; 10^−9 M) was 194.3 cm^2, the Shoot dry weight (soybean (cv Bayfield) [2]; 10^−9 M) was 999.9 mg and the Leaf area (soybean (cv Bayfield) [2]; 10^−10 M) was 195.3 cm^2. It also gave a Shoot dry weight (soybean (cv Bayfield) [2]; 10^−10 M) of 1012.3 mg, a Leaf area (soybean (cv Bayfield) [2]; 10^−11 M) of 202.6 cm^2 and a Shoot dry weight (soybean (cv Bayfield) [2]; 10^−11 M) of 931.6 mg. For the same substance, the Leaf area (soybean (cv Bayfield) [2]; 10^−12 M) was 230.3 cm^2, the Shoot dry weight (soybean (cv Bayfield) [2]; 10^−12 M) was 1060.8 mg and the “shoot dry weights vs control plants” value (soybean (cv Bayfield) [2]; p<0.05) was “higher”. For the same substance, the “leaf areas vs control plants” value (soybean (cv Bayfield) [2]; p=0.09) was “only increased numerically”, the “leaf internal CO2 concentration” value [3] was “decreased” and the stomatal aperture [3] was “did not significantly alter”. The increase in photosynthesis ([3]; in general) was 10-20%, the “intercellular CO2 concentration” value [4] was “unaffected” and the stomatal conductance [4] was “increases”. The transpiration [4] was “increases”, the increase in photosynthesis ([4]; in general) was 10-20% and the “intercellular CO2 concentration” value [5] was “unaffected”. The stomatal conductance [5] was “increases”, the transpiration [5] was “increases” and the increase in photosynthesis ([5]; in general) was 10-20%.
